Measurements as given in patent US20230017532A1 (Hoffmann-La Roche Inc., priority 2018, published 2023).
Where a name gives a salt, the structure may show the parent alone.

test system: Acinetobacter baumannii ATCC17961; assay: Antimicrobial susceptibility testing: 90% growth inhibitory concentration (IC90) determination, Iso-Sensitest broth, OD 600 nm; type: cell-based; settings: 90% growth inhibitory concentration, Acinetobacter baumannii ATCC17961, Iso-Sensitest broth, OD 600 nm over 16 h; read-out: ATCC 17961 IC90
In short: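 Twofold serial dilutions (e.g. 50–0.097 μM final) incubated with ~5×10^5 CFU/ml in Iso-Sensitest broth at 35±2 °C. OD600 read every 20 min for 16 h; IC90 derived from growth inhibition during logarithmic phase.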

| SMILES | IC90 [µM] |
| --- | --- |
| CCc1cc(Nc2nccn3c(-c4cccc(F)c4C(F)(F)F)cnc23)ccc1C(=O)NCCOCCN [Example 179, N-[2-(2-aminoethoxy)ethyl]-2-ethyl-4-[[3-[3-fluoro-2-(trifluoromethyl)phenyl]imidazo [1,2-a]pyrazin-8-yl]amino] benzamide] | 0.3 |
| CCc1cc(Nc2nccn3c(-c4cc(F)cc(OC)c4)cnc23)ccc1C(=O)NCCOCCN [Example 211, N-[2-(2-amino-ethoxy)ethyl]-2-ethyl-4-[[3-(3-fluoro-5-methoxy-phenyl)imidazo [1,2-a]pyrazin-8-yl]amino] benzamide] | 0.94 |
| C=CCNCCCNC(=O)c1ccc(Nc2nccn3c(-c4ccc(OC)c(F)c4F)cnc23)cc1CC [Example 181, 4-[[3-(2,3-difluoro-4-methoxyphenyl)imidazo[1,2-a]pyrazin-8-yl]amino]-2-ethyl-N-[3-(prop-2-enylamino)propyl] benzamide; hydrochloride] | 0.16 |
| COc1ccc(-c2cnc3c(Nc4cc(C)c(C(=O)NCCOCCNC(=O)[C@@H]5C[C@@H](O)CN5)c(F)c4)nccn23)c(F)c1F [Example 215, (2S,4R)-N-(2-(2-(4-((3-(2,3-difluoro-4-methoxyphenyl)imidazo[1,2-a]pyrazin-8-yl)amino)-2-fluoro-6-methyl-benzamido)ethoxy)ethyl)-4-hydroxy-pyrrolidine-2-carboxamide] | 0.23 |
| CCc1cc(Nc2nccn3c(-c4cc(C)cc(F)c4)cnc23)ccc1C(=O)NCCOCCN [Example 213, N-[2-(2-amino-ethoxy)ethyl]-2-ethyl-4-[[3-(3-fluoro-5-methyl-phenyl)imidazo [1,2-a]pyrazin-8-yl]amino] benzamide] | 0.81 |

Next, values leading:

| IC90 [µM] | SMILES |
| --- | --- |
| 0.54 | CCc1cc(Nc2nccn3c(-c4ccc(OC)c(F)c4F)cnc23)ccc1C(=O)N[C@@H](C)CNCCO [Example 218, 4-[[3-(2,3-difluoro-4-methoxy-phenyl)imidazo [1,2-a]pyrazin-8-yl]amino]-2-ethyl-N-[(1S)-2-(2-hydroxyethyl-amino)-1-methyl-ethyl]benzamide] |
| 2.79 | CCc1cc(Nc2nccn3c(-c4ccc(OC)cc4S(=O)(=O)NC)cnc23)ccc1C(=O)NCCOCCN [Example 55, N-[2-(2-aminoethoxy)ethyl]-2-ethyl-4-[[3-[4-methoxy-2-(methylsulfamoyl)phenyl]imidazo[1,2-a]pyrazin-8-yl]amino]benzamide; formic acid] |
| 0.53 | CCc1cc(Nc2nccn3c(-c4ccc(Oc5ccccn5)c(F)c4F)cnc23)ccc1C(=O)NCCOCC(=O)N1CCN[C@H](CO)C1 [Example 204, 4-[[3-[2,3-difluoro-4-(2-pyridyloxy)phenyl]imidazo [1,2-a]pyrazin-8-yl]amino]-2-ethyl-N-[2-[2-[(3S)-3-(hydroxymethyl)piperazin-1-yl]-2-oxo-ethoxy]ethyl]benzamide] |
| 0.55 | CCc1cc(Nc2nccn3c(-c4cc(F)ccc4F)cnc23)ccc1C(=O)NCCOCCN [Example 210, N-[2-(2-amino-ethoxy)ethyl]-4-[[3-(2,5-difluorophenyl)imidazo[1,2-a]pyrazin-8-yl]amino]-2-ethyl-benzamide] |
| 0.51 | CCc1cc(Nc2nccn3c(-c4ccc(OC)c(F)c4F)cnc23)ccc1C(=O)N[C@H](C)CNCCCCNCCCN [Example 228, (R)-N-(1-((4-((3-aminopropyl)amino)butyl)amino)propan-2-yl)-4-((3-(2,3-difluoro-4-methoxyphenyl)imidazo[1,2-a]pyrazin-8-yl)amino)-2-ethylbenzamide trihydrochloride] |
| 0.63 | C#CCOc1ccc(-c2cnc3c(Nc4ccc(C(=O)N[C@@H](C)CNCCN)c(CC)c4)nccn23)c(F)c1F [Example 200] |
| 0.36 | C#CCOc1ccc(-c2cnc3c(Nc4ccc(C(=O)N[C@@H](C)CNCCNC(C)=O)c(CC)c4)nccn23)c(F)c1F [Example 201, N-[(1S)-2-(2-acetamidoethyl-amino)-1-methyl-ethyl]-4-[[3-(2,3-difluoro-4-prop-2-ynoxy-phenyl)imidazo[1,2-a]pyrazin-8-yl]amino]-2-ethyl-benzamide] |
